Experimental data published in patent US20090305995A1, “AGONISTS AND ANTAGONISTS OF THE SOMATOSTATIN RECEPTOR” (Novartis AG, priority 2004, published 2009).
Converted amounts (≈) assume the structure as drawn. Read-outs that look alike come from different tables or passages of the source.

Assays:
Assay type in all cases: physicochemical
[1] = HT-logP o/w, high throughput assay based on artificial liquid membrane permeability
Description: To be absorbed and transported by passive diffusion, drugs must be sufficiently lipophilic to penetrate the lipid cores of membranes, but not too lipophilic that they get retained and accumulated there. The lipophilictity of a compound is expressed by the octanol/water partition coefficient or distribution coefficient. A first approximation of substance polarity can either be given by computer assisted calculations giving Clog P values or by measurement of the partition coefficients in high-throughput assays (HT-log P o/w) (Faller et al., 2004; Wohnsland et al., 2001).
Octanol/water partition coefficients are measured in a high throughput assay based on artificial liquid membrane permeability. […] Still many approaches to calculate log P values are limited due to a lack of parameterization of certain fragments and fail with increasing molecular weight which implicates higher structural complexity. Similar problems and failures are observed in chromatographic determinations of log P: Peptides might undergo structural changes driven by interactions with the stationary phase. Decisive interactions between the stationary phase and the defolded analytes are therefore also based on the linear peptide sequence. For this reason measured HT-log P o/w values based on chromatographic assays employing stationary phases may lead to erroneous results.

[2] = high throughput solubility (HT-Solubility); conditions: for water solubility (in words): see FIG. 10
[3] = high throughput permeability (HT-Permeability, log Pe); conditions: PAMPA, Pe in cm/s
[4] = pH 1, pH 1.0, read-out: HT-Solubility pH 1.0
[5] = pH 6.8, pH 6.8, read-out: HT-Solubility pH 6.8
[6] = octanol/water; read-out: HT LogP ohw
[7] = pH 4, pH 4.0, read-out: HT-Permeability logPe pH 4.0 (converted)
[8] = pH 6.8, pH 6.8, read-out: HT-Permeability logPe pH 6.8 (converted)
[9] = pH 8, pH 8.0, read-out: HT-Permeability logPe pH 8.0 (converted)

Compound | solubility [2, 4] [µg/mL] | solubility [2, 5] [µg/mL] | Papp [3, 7] [×10⁻⁶ cm/s] | also measured
C[C@@H](O)[C@@H](CC(N)=O)NC(=O)C[C@H](CCCCN)NC(=O)[C@@H](Cc1c[nH]c2ccccc12)NC(=O)C[C@H](Cc1ccccc1)NC(=O)C1CCCCC1 [Compound 26, Cyclohexanoyl-(S)-β^3-HPhe-(R)-Trp-(S)-β^3-HLys-(R), (R)—HThr-NH2] | 7.3 (≈ 9.97 µM) | 1.5 (≈ 2.05 µM) | – | logP ([1]; octanol/water, read-out: HT LogP ohw): 3.3
CC(C)[C@@H](CC(=O)N(C)CCc1ccccc1)NC(=O)C[C@H](CCCCN)NC(=O)[C@@H](Cc1c[nH]c2ccccc12)NC(=O)C[C@H](Cc1ccccc1)NC(=O)C12CC3CC(CC(C3)C1)C2 [Compound 27, Adamantoyl-(S)-β^3-HPhe-(R)-Trp-(S)-β^3-HLys-(R)-β^3-Leu-methyl-phenethyl-amide] | 45 (≈ 50 µM) | 9 (≈ 10 µM) | – | –
CCCCCN(C)C(=O)C[C@H](CCCCN)NC(=O)[C@@H](Cc1c[nH]c2ccccc12)N(C)C(=O)C[C@H](Cc1ccccc1)NC(=O)CC [Compound 63, Propionyl-(S)-β^3-HPhe-(R)—N-Me-Trp-(S)-β^3-HLys-methyl-pentyl-amide] | 132 (≈ 200 µM) | 132 (≈ 200 µM) | – | logP [1, 6]: 3.9; water solubility (in words) [2]: highest solubility values
CC(=O)N[C@H](CC(=O)N[C@H](Cc1c[nH]c2ccccc12)C(=O)N[C@@H](CCCCN)CC(=O)N[C@H](CC(N)=O)[C@@H](C)O)Cc1ccccc1 [Compound 2, Ac—(S)-β^3-HPhe-(R)-Trp-(S)-β^3-HLys-(R), (R)—HThr-NH2] | 13.3 (≈ 20 µM) | 13.3 (≈ 20 µM) | 0.1 | –
CC(=O)N[C@H](CC(=O)N[C@H](Cc1c[nH]c2ccccc12)C(=O)N[C@@H](CCCCN)CC(=O)N[C@@H]1CC(=O)O[C@@H]1C)Cc1ccccc1 [Compound 7, Ac—(S)-β^3-HPhe-(R)-Trp-(S)-β^3-HLys-(R)-4-amino-(R)-5-methyl-dihydro-furan-2-one] | 129 (≈ 200 µM) | 129 (≈ 200 µM) | – | –
CC(=O)N[C@H](CC(=O)N[C@H](Cc1c[nH]c2ccccc12)C(=O)N[C@@H](CCCCN)CC(N)=O)Cc1ccccc1 [Compound 58, Ace-(S)-β^3-HPhe-(R)-Trp-(S)-β^3-HLys-NH2] | 110 (≈ 200 µM) | 110 (≈ 200 µM) | 1 | Papp [3, 8]: 5.01 ×10⁻⁶ cm/s
C[C@H]1OC(=O)C[C@H]1NC(=O)C[C@H](CCCCN)NC(=O)[C@@H](Cc1c[nH]c2ccccc12)NC(=O)C[C@@H](N)Cc1ccccc1 [Compound 29] | – | – | – | HT LogP ohw ([1]; octanol/water): 3.3; HT-Solubility pH 1.0 [2]: 0.121 g 1-1; HT-Solubility pH 6.8 [2]: 0.121 g 1-1
CCCCCNC(=O)C[C@H](CCCCN)NC(=O)[C@@H](Cc1c[nH]c2ccccc12)NC(=O)C[C@H](Cc1ccccc1)NC(=O)CC [Compound 50] | 127 (≈ 200 µM) | – | – | logP [1, 6]: 3.4; water solubility (in words) [2]: medium to good
CCCCCNC(=O)C[C@H](CCCCN)NC(=O)[C@@H](Cc1c[nH]c2ccccc12)NC(=O)C[C@H](Cc1ccccc1)NC(C)=O [Compound 45, Ace-(S)-β^3-HPhe-(R)-Trp-(S)-β^3-HLys-pentyl-amide] | – | – | – | HT LogP ohw ([1]; octanol/water): 3.2; HT-Solubility pH 1.0 [2]: 0.1236 g 1-1; HT-Solubility pH 6.8 [2]: 0.0619 g 1-1; water solubility (in words) [2]: medium to good
C[C@@H](O)[C@@H](CC(N)=O)NC(=O)C[C@H](CCCCN)NC(=O)[C@@H](Cc1c[nH]c2ccccc12)NC(=O)C[C@@H](N)Cc1ccccc1 [Compound 36, (S)-β^3-HPhe-(R)-Trp-(S)-β^3-HLys-(R), (R)—HThr-NH2] | 124 (≈ 200 µM) | 124 (≈ 200 µM) | 1.58 | Papp [3, 9]: 2 ×10⁻⁶ cm/s
CCC(=O)N[C@H](CC(=O)N[C@H](Cc1c[nH]c2ccccc12)C(=O)N[C@@H](CCCCN)CC(N)=O)Cc1ccccc1 [Compound 60, Propionyl-(S)-β^3-HPhe-(R)-Trp-(S)-β^3-HLys-NH2] | 112 (≈ 200 µM) | 112 (≈ 200 µM) | 3.16 | Papp [3, 8]: 7.94 ×10⁻⁶ cm/s; Papp [3, 9]: 1.26 ×10⁻⁶ cm/s
